Experimental data taken from ChEMBL document CHEMBL1143748, “'Bridged' stilbene derivatives as selective cyclooxygenase-1 inhibitors” (Bioorg Med Chem, 2007).

How the values were obtained:
[1] = system: Aorta; assay: Relaxing effect on guinea pig aorta ring assessed as reduction of force of contraction at 100 uM; type: functional, Cavia porcellus; set-up: scale not given: the % may be the effect or the level left
[2] = system: Ileum; assay: Relaxing effect on guinea pig terminal ileum ring assessed as reduction of force of contraction at 100 uM; type: functional, Cavia porcellus; set-up: scale not given: the % may be the effect or the level left
[3] = Relaxing effect on guinea pig arteria pulmonalis ring assessed as reduction of force of contraction at 100 uM; type: functional, Cavia porcellus; set-up: scale not given: the % may be the effect or the level left
[4] = molecular target: T1, Prostaglandin G/H synthase 1 (Ovis aries, UniProt P05979); assay: Inhibition of ovine COX1 by measuring PGE2
T1 sequence (P05979 whole entry): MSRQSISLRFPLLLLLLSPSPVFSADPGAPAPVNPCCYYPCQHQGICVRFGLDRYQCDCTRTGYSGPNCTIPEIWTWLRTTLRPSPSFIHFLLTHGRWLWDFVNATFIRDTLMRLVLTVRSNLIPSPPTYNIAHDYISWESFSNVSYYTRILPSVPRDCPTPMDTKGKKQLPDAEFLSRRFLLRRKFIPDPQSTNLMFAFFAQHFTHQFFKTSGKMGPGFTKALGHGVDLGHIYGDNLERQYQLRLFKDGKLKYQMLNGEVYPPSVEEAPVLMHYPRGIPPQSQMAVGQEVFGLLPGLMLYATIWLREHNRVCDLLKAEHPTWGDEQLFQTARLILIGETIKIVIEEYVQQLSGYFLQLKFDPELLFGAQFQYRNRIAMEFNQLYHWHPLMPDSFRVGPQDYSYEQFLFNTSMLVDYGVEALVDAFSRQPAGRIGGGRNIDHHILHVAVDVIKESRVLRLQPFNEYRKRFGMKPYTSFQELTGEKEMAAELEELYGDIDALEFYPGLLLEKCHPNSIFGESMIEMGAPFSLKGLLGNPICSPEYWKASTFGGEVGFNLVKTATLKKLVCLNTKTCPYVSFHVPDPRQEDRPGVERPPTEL

[5] = Selectivity for ovine COX1 over human recombinant COX2
[6] = molecular target: T2, Prostaglandin G/H synthase 2 (Homo sapiens, UniProt P35354); assay: Inhibition of human recombinant COX2 by measuring PGE2
T2 sequence (P35354 whole entry): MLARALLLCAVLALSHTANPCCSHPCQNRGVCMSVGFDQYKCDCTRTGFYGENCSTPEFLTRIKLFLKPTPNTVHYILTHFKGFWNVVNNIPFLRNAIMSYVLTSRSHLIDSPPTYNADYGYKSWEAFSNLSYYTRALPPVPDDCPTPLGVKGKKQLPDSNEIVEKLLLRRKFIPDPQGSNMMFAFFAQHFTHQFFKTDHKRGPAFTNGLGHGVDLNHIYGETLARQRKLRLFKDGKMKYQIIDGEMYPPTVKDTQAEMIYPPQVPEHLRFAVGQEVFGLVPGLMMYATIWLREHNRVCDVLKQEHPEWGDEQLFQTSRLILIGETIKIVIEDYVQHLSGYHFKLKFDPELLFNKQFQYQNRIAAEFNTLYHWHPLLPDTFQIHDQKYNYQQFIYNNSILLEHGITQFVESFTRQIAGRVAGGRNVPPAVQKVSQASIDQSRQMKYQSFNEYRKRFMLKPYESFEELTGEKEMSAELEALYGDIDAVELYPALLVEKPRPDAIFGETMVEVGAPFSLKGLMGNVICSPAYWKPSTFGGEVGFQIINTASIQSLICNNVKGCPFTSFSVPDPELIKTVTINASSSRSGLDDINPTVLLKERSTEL

Structure (SMILES) | IC50 [4] [nM] | Ratio IC50 [5] | IC50 [6] [nM] | Activity [1] [%] | Activity [2] [%] | Activity [3] [%]
Oc1ccc(/C=C/c2cc(O)cc(O)c2)cc1 [RESVERATROL] | 535 | – | – | -55.15 | -64.77 | -53.56
COc1ccc2c(c1)CCC(c1ccc(OC)c(OC)c1)=C2 | 380 | 0.079 | 30 | – | – | –
COc1ccccc1C1=Cc2ccccc2C1 | 460 | 135 | 62300 | -35.72 | -40.89 | -26.08
C1=C(c2ccc3c(c2)OCO3)Cc2ccccc21 | 12800 | > 7.8 | > 100000 | -28.08 | -51.74 | -19.82
COc1ccc(C2=Cc3ccccc3CC2)cc1OC | 61100 | > 1.63 | > 100000 | -15.97 | -45.34 | -41.45
C1=C(c2ccc3c(c2)OCO3)CCc2ccccc21 | > 100000 | – | > 100000 | – | – | –

The next lines start with results.

IC50 [4] [nM] | Ratio IC50 [5] | IC50 [6] [nM] | Structure (SMILES) | Activity [1] [%] | Activity [2] [%] | Activity [3] [%]
480 | 1.38 | 660 | COc1ccc(C2=Cc3ccccc3CC2)c(OC)c1OC | – | – | –
30 | 44.3 | 1330 | COc1ccc(C2=Cc3ccccc3C2)c(OC)c1OC | -3.45 | -35.94 | -11.92
15 | > 6670 | > 100000 | COc1ccc2c(c1)CCC(c1ccc(OC)c(OC)c1OC)=C2 | – | – | –
